Reference: patent US12492188B2, “1H-benzo[D]imidazole derivatives as TLR9 inhibitors for the treatment of fibrosis” (BRISTOL-MYERS SQUIBB COMPANY, priority 2020, dated 2025)
Like-named read-outs stand apart in the source and are kept apart here.

Columns and labels:
Format in all cases: cell-based
human TLR9 = target: T1, human TLR9 (Homo sapiens, UniProt Q9NR96); assay: TLR9 inhibition reporter assay (HEK-Blue cells, secreted embryonic alkaline phosphatase reporter)
T1 construct: host or cells: HEK-Blue cells (HEK293-derived reporter line)
T1 sequence (Q9NR96 26-1032): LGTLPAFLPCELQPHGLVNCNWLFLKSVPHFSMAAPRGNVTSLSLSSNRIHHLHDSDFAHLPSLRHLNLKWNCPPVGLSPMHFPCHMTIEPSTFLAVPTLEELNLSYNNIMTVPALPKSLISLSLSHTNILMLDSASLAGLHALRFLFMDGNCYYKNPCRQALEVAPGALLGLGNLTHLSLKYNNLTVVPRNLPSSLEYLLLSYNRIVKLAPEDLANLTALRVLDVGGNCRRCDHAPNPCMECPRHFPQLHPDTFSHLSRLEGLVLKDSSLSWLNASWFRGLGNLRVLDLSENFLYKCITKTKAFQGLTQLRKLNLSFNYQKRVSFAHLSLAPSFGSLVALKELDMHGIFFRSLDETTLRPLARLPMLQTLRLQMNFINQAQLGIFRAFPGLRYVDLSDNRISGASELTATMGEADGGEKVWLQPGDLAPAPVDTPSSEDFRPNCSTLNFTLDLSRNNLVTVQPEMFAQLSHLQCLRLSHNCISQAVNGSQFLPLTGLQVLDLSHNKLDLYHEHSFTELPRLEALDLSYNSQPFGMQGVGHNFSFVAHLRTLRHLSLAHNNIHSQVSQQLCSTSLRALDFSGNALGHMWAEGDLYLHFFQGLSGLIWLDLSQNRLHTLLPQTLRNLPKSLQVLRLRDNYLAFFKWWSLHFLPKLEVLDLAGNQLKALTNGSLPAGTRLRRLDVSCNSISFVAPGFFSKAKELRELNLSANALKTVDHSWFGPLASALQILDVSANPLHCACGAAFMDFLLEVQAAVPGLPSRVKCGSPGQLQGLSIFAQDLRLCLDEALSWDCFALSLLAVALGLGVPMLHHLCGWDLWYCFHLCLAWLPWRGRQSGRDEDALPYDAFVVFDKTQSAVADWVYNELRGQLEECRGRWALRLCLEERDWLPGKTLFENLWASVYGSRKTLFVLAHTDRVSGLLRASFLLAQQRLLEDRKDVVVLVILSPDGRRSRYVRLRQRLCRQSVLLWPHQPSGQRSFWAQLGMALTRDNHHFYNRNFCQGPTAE
How it was run: (§1)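 Inhibitors are tested in dose response (0.05 nM–50 μM) on HEK-Blue reporter cells expressing human TLR7, TLR8 or TLR9. After 30 min at room temperature, each line is stimulated with its own agonist (gardiquimod 7.5 μM, R848 15.9 μM or ODN2006 5 nM, final) and SEAP is measured 22 h later.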

human TLR7 = target: T2, human TLR7 (Homo sapiens, UniProt Q9NYK1); assay: TLR7 inhibition reporter assay (HEK-Blue cells, secreted embryonic alkaline phosphatase reporter); conditions: HEK-Blue cells overexpressing human TLR7, stimulated with gardiquimod 7.5 μM; read-out: TLR 7 IC50
T2 construct: host or cells: HEK-Blue cells (HEK293-derived reporter line)
T2 sequence (Q9NYK1 27-1049): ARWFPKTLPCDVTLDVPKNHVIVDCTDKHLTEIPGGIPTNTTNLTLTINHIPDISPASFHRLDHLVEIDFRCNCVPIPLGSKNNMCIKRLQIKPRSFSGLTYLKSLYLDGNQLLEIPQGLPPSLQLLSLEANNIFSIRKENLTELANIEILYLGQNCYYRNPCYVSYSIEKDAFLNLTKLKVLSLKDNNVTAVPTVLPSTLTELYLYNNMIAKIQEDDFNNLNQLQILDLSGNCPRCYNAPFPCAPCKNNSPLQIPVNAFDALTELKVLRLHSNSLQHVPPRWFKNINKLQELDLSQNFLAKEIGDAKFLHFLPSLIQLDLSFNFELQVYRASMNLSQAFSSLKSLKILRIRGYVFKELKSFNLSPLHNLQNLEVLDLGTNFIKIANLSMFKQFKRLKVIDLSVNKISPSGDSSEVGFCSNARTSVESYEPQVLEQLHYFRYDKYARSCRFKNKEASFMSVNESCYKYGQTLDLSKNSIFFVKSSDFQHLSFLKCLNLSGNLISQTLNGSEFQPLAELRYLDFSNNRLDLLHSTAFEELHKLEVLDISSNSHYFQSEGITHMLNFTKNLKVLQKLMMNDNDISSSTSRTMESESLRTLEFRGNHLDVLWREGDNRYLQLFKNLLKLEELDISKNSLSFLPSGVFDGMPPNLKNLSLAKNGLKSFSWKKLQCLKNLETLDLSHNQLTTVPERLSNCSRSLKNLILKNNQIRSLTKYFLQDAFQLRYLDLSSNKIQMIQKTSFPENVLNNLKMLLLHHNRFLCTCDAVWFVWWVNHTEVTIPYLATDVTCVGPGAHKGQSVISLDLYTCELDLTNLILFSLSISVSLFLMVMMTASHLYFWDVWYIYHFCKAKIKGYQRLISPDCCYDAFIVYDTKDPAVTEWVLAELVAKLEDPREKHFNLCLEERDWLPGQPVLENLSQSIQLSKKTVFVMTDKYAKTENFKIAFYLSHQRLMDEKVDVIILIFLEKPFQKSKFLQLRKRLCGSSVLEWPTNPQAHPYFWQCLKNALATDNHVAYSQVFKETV
How it was run: as §1

human TLR8 = target: T3, human TLR8 (Homo sapiens, UniProt Q9NR97); assay: TLR8 inhibition reporter assay (HEK-Blue cells, secreted embryonic alkaline phosphatase reporter); conditions: HEK-Blue cells overexpressing human TLR8, stimulated with R848 15.9 μM; read-out: TLR 8 IC50
T3 construct: host or cells: HEK-Blue cells (HEK293-derived reporter line)
T3 sequence (Q9NR97 27-1041): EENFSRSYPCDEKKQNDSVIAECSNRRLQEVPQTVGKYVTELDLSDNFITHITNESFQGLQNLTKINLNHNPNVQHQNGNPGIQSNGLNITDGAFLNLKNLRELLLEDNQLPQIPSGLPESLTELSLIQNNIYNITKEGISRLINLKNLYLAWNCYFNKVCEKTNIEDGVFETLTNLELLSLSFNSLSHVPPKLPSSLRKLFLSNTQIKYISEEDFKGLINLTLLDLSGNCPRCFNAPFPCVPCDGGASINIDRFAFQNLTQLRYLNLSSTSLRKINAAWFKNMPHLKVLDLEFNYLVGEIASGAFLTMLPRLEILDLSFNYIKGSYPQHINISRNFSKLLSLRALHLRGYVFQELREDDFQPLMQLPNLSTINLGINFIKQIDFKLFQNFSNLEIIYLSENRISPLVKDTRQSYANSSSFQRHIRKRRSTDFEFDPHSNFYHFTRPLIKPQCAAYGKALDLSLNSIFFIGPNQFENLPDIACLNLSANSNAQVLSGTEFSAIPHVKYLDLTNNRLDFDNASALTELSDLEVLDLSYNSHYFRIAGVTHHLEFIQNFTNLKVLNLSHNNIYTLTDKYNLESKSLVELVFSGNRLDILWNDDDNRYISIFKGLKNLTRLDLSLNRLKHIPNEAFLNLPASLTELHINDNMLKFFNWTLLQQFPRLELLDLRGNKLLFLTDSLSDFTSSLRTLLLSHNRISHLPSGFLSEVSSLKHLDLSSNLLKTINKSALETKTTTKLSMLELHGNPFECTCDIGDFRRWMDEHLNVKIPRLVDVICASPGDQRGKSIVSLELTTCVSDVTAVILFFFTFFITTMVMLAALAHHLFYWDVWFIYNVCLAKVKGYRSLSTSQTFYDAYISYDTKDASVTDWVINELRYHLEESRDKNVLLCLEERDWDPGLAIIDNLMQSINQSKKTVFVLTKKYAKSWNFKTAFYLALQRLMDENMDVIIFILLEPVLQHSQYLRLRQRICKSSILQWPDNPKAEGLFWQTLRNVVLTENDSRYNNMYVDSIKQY
How it was run: as §1

[1] = HEK-Blue cells overexpressing human TLR9, stimulated with ODN2006 5 nM, read-out: TLR 9 IC50
[2] = HEK-Blue human TLR9 reporter cells
[3] = HEK-Blue cells overexpressing human TLR9, stimulated with ODN2006 5 nM, 22 hour incubation, reporter readout

| Compound | IC50 (human TLR9; [1]) [µM] | IC50 (human TLR9; [2]) [µM] | IC50 (human TLR7) [µM] | IC50 (human TLR8) [µM] | IC50 (human TLR9; [3]) [µM] | IC50 (human TLR9) [µM] |
| --- | --- | --- | --- | --- | --- | --- |
| COc1cc(-c2nc3c(C)cc(C4CCN(C5CC6CCC(C5)N6C5CCC5)CC4)cc3n2C)cn2ncnc12 (single isomer, unassigned) [Example 355, 6-(6-(1-(8-cyclobutyl-8-azabicyclo[3.2.1]octan-3-yl)piperidin-4-yl)-1,4-dimethyl-1H-benzo[d]imidazol-2-yl)-8-methoxy-[1,2,4]triazolo[1,5-a]pyridine] | 0.011 | 0.011 | 0.2 | 3.1 | – | – |
| Cc1cc(-c2ccc(N3CCC(N(C)C)CC3)cc2)cc2c1nc(-c1ccc(S(C)(=O)=O)cc1)n2C [Example 368, 1-(4-(1,4-dimethyl-2-(4-(methylsulfonyl)phenyl)-1H-benzo[d]imidazol-6-yl)phenyl)-N,N-dimethylpiperidin-4-amine] | 0.414 | – | 1.4 | 1.7 | 0.41 | – |
| Cn1c(-c2ccc(S(C)(=O)=O)cc2)nc2ccc(C3CCN(C4CC5CCC(C4)N5C4CCC4)CC3)c(F)c21 (single isomer, unassigned) [Example 271, 6-(1-(8-cyclobutyl-8-azabicyclo[3.2.1]octan-3-yl)piperidin-4-yl)-7-fluoro-1-methyl-2-(4-(methylsulfonyl)phenyl)-1H-benzo[d]imidazole] | 0.407 | – | 31.6 | > 50 | – | 0.41 |
| CS(=O)(=O)c1ccc(-c2nc3ccc(C4CCN(C5CCN(CC6COC6)CC5)CC4)c(F)c3[nH]2)cc1 [Example 183, 7-fluoro-2-(4-(methylsulfonyl)phenyl)-6-(1′-(oxetan-3-ylmethyl)-[1,4′-bipiperidin]-4-yl)-1H-benzo[d]imidazole] | 0.11 | – | > 50 | > 50 | – | 0.11 |
| Cc1cc(C2CCN(C3CC4CCC(C3)N4C3COC3)CC2)cc2c1nc(-c1ccc(S(C)(=O)=O)cc1)n2C (single isomer, unassigned) [Example 158, 1,4-dimethyl-2-(4-(methylsulfonyl)phenyl)-6-(1-(8-(oxetan-3-yl)-8-azabicyclo[3.2.1]octan-3-yl)piperidin-4-yl)-1H-benzo[d]imidazole] | 1.61 | – | > 25 | > 25 | – | 0.16 |

Other lines, results leading:

| IC50 (human TLR9; [1]) [µM] | IC50 (human TLR9; [2]) [µM] | IC50 (human TLR7) [µM] | IC50 (human TLR8) [µM] | IC50 (human TLR9; [3]) [µM] | IC50 (human TLR9) [µM] | Compound |
| --- | --- | --- | --- | --- | --- | --- |
| 0.269 | 0.27 | 10.2 | > 50 | – | – | Cc1cc(C2CCN(C3CCN(c4ccccc4)CC3)CC2)cc2c1nc(-c1ccc(S(C)(=O)=O)cc1)n2C [Example 318, 1,4-dimethyl-2-(4-(methylsulfonyl)phenyl)-6-(1′-phenyl-[1,4′-bipiperidin]-4-yl)-1H-benzo[d]imidazole] |
| – | – | 1.2 | > 50 | 0.083 | – | Cc1cc(C2CCN(C3CCCN(C4CCC4)CC3)CC2)cc2c1nc(-c1ccc(S(C)(=O)=O)cc1)n2C (single isomer, unassigned) [Example 110, 6-(1-(1-cyclobutylazepan-4-yl)piperidin-4-yl)-1,4-dimethyl-2-(4-(methylsulfonyl)phenyl)-1H-benzo[d]imidazole] |
| 0.363 | – | > 50 | > 50 | 0.36 | – | CC(C)N1CCC(N2CCC(c3ccc4c(nc(-c5ccc(S(C)(=O)=O)cc5)n4C)c3F)CC2)CC1 [Example 88, 4-fluoro-5-(1′-isopropyl-[1,4′-bipiperidin]-4-yl)-1-methyl-2-(4-(methylsulfonyl)phenyl)-1H-benzo[d]imidazole] |
| 0.023 | 0.023 | 12.5 | > 50 | – | – | CC(C)CN1CCCC(N2CCC(c3cc(F)c4nc(-c5ccc(S(C)(=O)=O)cc5)n(C)c4c3)CC2)CC1 (stereo not shown) [Example 297, 4-fluoro-6-(1-(1-isobutylazepan-4-yl)piperidin-4-yl)-1-methyl-2-(4-(methylsulfonyl)phenyl)-1H-benzo[d]imidazole] |
| 2.63 | – | > 50 | > 50 | – | 2.6 | CC(C)CN1C2CCC1CC(N1CCC(c3ccc4c(nc(-c5ccc(S(C)(=O)=O)cc5)n4C)c3F)CC1)C2 (single isomer, unassigned) [Example 190, 4-fluoro-5-(1-(8-isobutyl-8-azabicyclo[3.2.1]octan-3-yl)piperidin-4-yl)-1-methyl-2-(4-(methylsulfonyl)phenyl)-1H-benzo[d]imidazole] |
| 0.065 | – | 17.7 | > 50 | – | 0.065 | Cn1c(-c2ccc(S(C)(=O)=O)cc2)nc2ccc(C3CCN(C4CC5CCC(C4)N5C4CCC4)CC3)c(F)c21 (single isomer, unassigned) [Example 270, 6-(1-(8-cyclobutyl-8-azabicyclo[3.2.1]octan-3-yl)piperidin-4-yl)-7-fluoro-1-methyl-2-(4-(methylsulfonyl)phenyl)-1H-benzo[d]imidazole] |
